Measurements reported in patent publication US8580965B2, “Substituted sulfonamide compounds” (Gruenenthal GmbH, priority 2006, dated 2013).

What was measured:
[1] = target: T1, human B1R receptor (bradykinin 1 receptor) (Homo sapiens, UniProt P46663); test: FLIPR Ca2+ assay (Fluo-4) on CHO K1 cells stably transfected with the human B1R gene; % activation and % inhibition at 10 μM; format: cell-based; conditions: CHO-K1, test substance 10 μM; CHO K1 hB1R cells; Ca2+ inflow after 0.5 nM Lys-Des-Arg9-bradykinin; read-out: B1R antagonism, human [10 μM] % inhibition
T1 construct: host or cells: CHO K1 cells (hB1R cells)
T1 sequence (P46663 1-353): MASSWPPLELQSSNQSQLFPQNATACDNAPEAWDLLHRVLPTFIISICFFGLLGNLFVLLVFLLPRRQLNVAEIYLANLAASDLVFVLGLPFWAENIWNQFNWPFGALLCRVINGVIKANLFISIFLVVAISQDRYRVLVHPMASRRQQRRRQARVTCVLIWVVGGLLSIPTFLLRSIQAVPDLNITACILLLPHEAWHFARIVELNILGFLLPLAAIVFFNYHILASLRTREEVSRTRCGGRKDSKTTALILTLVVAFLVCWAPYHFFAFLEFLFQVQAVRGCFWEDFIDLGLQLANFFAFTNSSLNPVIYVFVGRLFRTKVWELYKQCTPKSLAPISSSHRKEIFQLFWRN
Procedure, shortened: (§1)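 CHO K1 cells stably expressing human or rat B1R, Fluo-4 loaded, read by FLIPR (peak fluorescence). Compound at 10 µM first gives % activation versus agonist; after 10 min, agonist (human: 0.5 nM Lys-Des-Arg9-bradykinin; rat: 100 nM Des-Arg9-bradykinin) gives % inhibition relative to maximal inhibition.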

[2] = target: T2, B1R receptor of the rat (bradykinin 1 receptor) (Rattus norvegicus, UniProt P97583); test: FLIPR Ca2+ assay (Fluo-4) on CHO K1 cells stably transfected with the B1R gene of the rat; % activation and % inhibition at 10 μM; format: cell-based; conditions: CHO-K1, test substance 10 μM; CHO K1 rB1R cells; Ca2+ inflow after 100 nM Des-Arg9-bradykinin; read-out: B1R antagonism, rat [10 μM] % inhibition
T2 construct: host or cells: CHO K1 cells (rB1R cells)
T2 sequence (P97583 1-337): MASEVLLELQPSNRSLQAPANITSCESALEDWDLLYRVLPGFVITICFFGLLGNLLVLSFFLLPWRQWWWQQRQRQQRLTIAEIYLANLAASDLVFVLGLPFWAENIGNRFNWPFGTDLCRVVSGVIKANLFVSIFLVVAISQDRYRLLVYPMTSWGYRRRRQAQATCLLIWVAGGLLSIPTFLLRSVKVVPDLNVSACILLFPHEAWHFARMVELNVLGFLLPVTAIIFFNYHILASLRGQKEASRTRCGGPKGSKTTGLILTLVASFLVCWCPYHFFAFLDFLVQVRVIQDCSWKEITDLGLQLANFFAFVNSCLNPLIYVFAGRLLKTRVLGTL
Procedure, shortened: as §1

An inhibition at 10 µM [1] of 104% and an inhibition at 10 µM [2] of 101% were found for `COc1cc(C)c(S(=O)(=O)N(C)CCOCC(=O)N2CCC(O)(CCc3cccnc3)CC2)c(C)c1` [Example 140, N-(2-(2-(4-hydroxy-4-(2-(pyridin-3-yl)ethyl)piperidin-1-yl)-2-oxoethoxy)ethyl)-4-methoxy-N,2,6-trimethylphenylsulfonamide] in this work.

An inhibition at 10 µM [1] of 104% and an inhibition at 10 µM [2] of 100% were found for `COc1cc(C)c(S(=O)(=O)N(C)CCOCC(=O)N2CCC(O)(c3cccc(F)c3)CC2)c(C)c1` [Example 141, N-(2-(2-(4-(3-fluorophenyl)-4-hydroxypiperidin-1-yl)-2-oxoethoxy)ethyl)-4-methoxy-N,2,6-trimethylphenylsulfonamide] in this work.

An inhibition at 10 µM [1] of 103% and an inhibition at 10 µM [2] of 100% were found for `COc1cc(C)c(S(=O)(=O)N2CCCCC2COCC(=O)N2CCC(O)(c3cccc(F)c3)CC2)c(C)c1` (stereo not shown) [Example 142, 1-(4-(3-fluorophenyl)-4-hydroxypiperidin-1-yl)-2-((1-(4-methoxy-2,6-dimethylphenylsulfonyl)piperidin-2-yl)methoxy)ethanone] in this work.

An inhibition at 10 µM [1] of 105% and an inhibition at 10 µM [2] of 100% were found for `COc1cc(C)c(S(=O)(=O)N(C)CCOCC(=O)N2CCC(O)(c3cccnc3)CC2)c(C)c1` [Example 143, N-(2-(2-(4-hydroxy-4-(pyridin-3-yl)piperidin-1-yl)-2-oxoethoxy)ethyl)-4-methoxy-N,2,6-trimethylphenylsulfonamide] in this work.

An inhibition at 10 µM [1] of 104% and an inhibition at 10 µM [2] of 101% were found for `COc1cc(C)c(S(=O)(=O)N2CCCCC2COCC(=O)N2CCC(O)(c3ccncc3)CC2)c(C)c1` (stereo not shown) [Example 144, 1-(4-hydroxy-4-(pyridin-4-yl)piperidin-1-yl)-2-((1-(4-methoxy-2,6-dimethylphenylsulfonyl)piperidin-2-yl)methoxy)ethanone] in this work.

An inhibition at 10 µM [1] of 70.7% and an inhibition at 10 µM [2] of 92.8% were found for `O=C(COCC1CCc2ccccc2N1S(=O)(=O)c1ccc(Cl)c(Cl)c1)N1CCC(O)(c2ccccn2)CC1` (stereo not shown) [Example 146, 2-((1-(3,4-dichlorophenylsulfonyl)-1,2,3,4-tetrahydroquinolin-2-yl)methoxy)-1-(4-hydroxy-4-(pyridin-2-yl)piperidin-1-yl)ethanone] in this work.

An inhibition at 10 µM [1] of 53.9% and an inhibition at 10 µM [2] of 93.3% were found for `O=C(COCC1CCc2ccccc2N1S(=O)(=O)c1ccc(Cl)c(Cl)c1)N1CCC(O)(c2ccncc2)CC1` (stereo not shown) [Example 147, 2-((1-(3,4-dichlorophenylsulfonyl)-1,2,3,4-tetrahydroquinolin-2-yl)methoxy)-1-(4-hydroxy-4-(pyridin-4-yl)piperidin-1-yl)ethanone] in this work.

An inhibition at 10 µM [1] of 100% and an inhibition at 10 µM [2] of 99% were found for `Cc1ccc2ccccc2c1S(=O)(=O)N(C)CCOCC(=O)N1CCC(O)(c2cccnc2)CC1` [Example 148, N-(2-(2-(4-hydroxy-4-(pyridin-3-yl)piperidin-1-yl)-2-oxoethoxy)ethyl)-N,2-dimethylnaphthalene-1-sulfonamide] in this work.

An inhibition at 10 µM [1] of 99.1% and an inhibition at 10 µM [2] of 100% were found for `Cc1cc(S(=O)(=O)N(C)CCOCC(=O)N2CCC(O)(c3cccnc3)CC2)c(C)cc1Cl` [Example 149, 4-chloro-N-(2-(2-(4-hydroxy-4-(pyridin-3-yl)piperidin-1-yl)-2-oxoethoxy)ethyl)-N,2,5-trimethylphenylsulfonamide] in this work.

An inhibition at 10 µM [1] of 95.3% and an inhibition at 10 µM [2] of 93.7% were found for `Cc1cc(S(=O)(=O)N(C)CCOCC(=O)N2CCC(O)(c3ccc(Cl)cc3)CC2)c(C)cc1Cl` [Example 150, 4-chloro-N-(2-(2-(4-(4-chlorophenyl)-4-hydroxypiperidin-1-yl)-2-oxoethoxy)ethyl)-N,2,5-trimethylphenylsulfonamide] in this work.

An inhibition at 10 µM [1] of 97.8% and an inhibition at 10 µM [2] of 86.9% were found for `Cc1cc(S(=O)(=O)N(C)CCOCC(=O)N2CCC(O)(c3ccc(Br)cc3)CC2)c(C)cc1Cl` [Example 151, N-(2-(2-(4-(4-bromophenyl)-4-hydroxypiperidin-1-yl)-2-oxoethoxy)ethyl)-4-chloro-N,2,5-trimethylphenylsulfonamide] in this work.
